Experiments:
interferon (α) = test: Cytokine induction in human cells: interferon secreted by PBMCs, ELISA; assay type: cell-based; settings: PBMC, incubated 18 to 24 hours, interferon determined by ELISA, read-out: Lowest Effective Concentration (μM) Interferon
In short: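 Human donor PBMCs at 1.5-2×10^6 cells/mL final in RPMI with 10% FBS, exposed to serially diluted compound (≤1% DMSO) for 18–24 h at 37 °C, 5% CO2. Supernatant interferon (α) measured by ELISA; value is lowest concentration inducing interferon.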

[1] = system: tumor necrosis factor (α); test: Cytokine induction in human cells: tumor necrosis factor (α) secreted by PBMCs, ELISA; assay type: cell-based; settings: PBMC, incubated 18 to 24 hours, TNF determined by ELISA, read-out: Lowest Effective Concentration (μM) Tumor Necrosis Factor
In short: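 Human donor PBMCs at final 1.5-2×10^6 cells/mL in RPMI with 10% FBS incubated 18 to 24 h at 37° C. with serially diluted compound, DMSO at most 1% final. Supernatant TNF-α measured by ELISA; value is the lowest concentration inducing TNF.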

melting point | Compound | minimal effective concentration (interferon (α)) [µM] | minimal effective concentration [1] [µM]
114 to 116 °C | COCCc1nc2c(N)nc3ccccc3c2n1CCCCNC(=O)c1cnc2ccccc2c1 [Example 182, N-{4-[4-amino-2-(2-methoxyethyl)-1H-imidazo[4,5-c]quinolin-1-yl]butyl}quinoline-3-carboxamide] | 0.01 | 0.01
199 to 200 °C | COCCc1nc2c(N)nc3ccccc3c2n1CCCCNC(=O)c1cc2ccccc2cn1 [Example 181, N-{4-[4-amino-2-(2-methoxyethyl)-1H-imidazo[4,5-c]quinolin-1-yl]butyl}isoquinoline-3-carboxamide] | 0.01 | 1.11
85 to 87 °C | COCCc1nc2c(N)nc3ccccc3c2n1CCCCNC(=O)c1cnc2ccccc2n1 [Example 183, N-{4-[4-amino-2-(2-methoxyethyl)-1H-imidazo [4,5-c]quinolin-1-yl]butyl}quinoxaline-2-carboxamide] | 0.01 | 0.04
219 °C (dec.) | CCOc1ccc2ccccc2c1C(=O)NCCCCn1cnc2c(N)nc3ccccc3c21 [Example 31, N^1-[4-(4-Amino-1H-imidazo[4,5-c]quinolin-1-yl)butyl]-2-ethoxy-1-naphthamide] | 1.11 | > 30

The remaining lines, values behind:

Compound | melting point | minimal effective concentration (interferon (α)) [µM] | minimal effective concentration [1] [µM]
Nc1nc2ccccc2c2c1ncn2CCCCNC(=O)c1ccc(C(=O)c2ccccc2)cc1 [Example 20, N^1-[4-(4-Amino-1H-imidazo[4,5-c]quinolin-1-yl)butyl]-4-benzoylbenzamide] | 159 to 161 °C | 3.33 | > 30
Nc1nc2ccccc2c2c1ncn2CCCCNC(=O)c1ccc2ncccc2c1 [Example 21, N^6-[4-(4-Amino-1H-imidazo[4,5-c]quinolin-1-yl)butyl]-6-quinolinecarboxamide] | 122 to 127 °C | 0.12 | 1.11
Nc1nc2ccccc2c2c1ncn2CCCCNC(=O)c1ccc(CCl)cc1 [Example 7, N^1-[4-(4-Amino-1H-imidazo[4,5-c]quinolin-1-yl)butyl]-4-(chloromethyl)benzamide] | 240 to 300 °C (dec.) | 1.11 | > 30
Nc1nc2ccccc2c2c1ncn2CCNC(=O)CCCCC1SCC2NC(=O)NC21 (stereo not drawn) [Example 27, N^1-[2-(4-Amino-1H-imidazo[4,5-c]quinolin-1-yl)ethyl]-5-(2-oxoperhydrothieno[3,4-d]imidazol-4-yl)pentanamide] | 169 °C | > 30 | > 30
Nc1nc2ccccc2c2c1ncn2CCCCNC(=O)c1ccc(Cn2c(N3CCCC3)nc3ccccc32)cc1 [Example 8, N^1-[4-(4-Amino-1H-imidazo[4,5-c]quinolin-1-yl)butyl]-4-[(2-tetrahydro-1H -1-pyrrolyl-1H-benzo[d]imidazol-1-yl)methyl]benzamide] | 150 to 153 °C | 0.04 | > 30
Nc1nc2ccccc2c2c1ncn2CCCCNC(=O)c1ccccc1Oc1ccccc1 [Example 14, N^1-[4-(4-Amino-1H-imidazo[4,5-c]quinolin-1-yl)butyl]-2-phenoxybenzamide] | 93 to 94 °C | 3.33 | > 30
Nc1nc2ccccc2c2c1ncn2CCCCNC(=O)COc1ccc(C(=O)c2ccccc2)cc1 [Example 18, N^1-[4-(4-Amino-1H-imidazo[4,5-c]quinolin-1-yl)butyl]-2-(4-benzoylphenoxy)acetamide] | 73 to 98 °C | 3.33 | > 30
Cc1nc2c(N)nc3ccccc3c2n1CCCNC(=O)c1ccccc1 [Example 22, N^1-[3-(4-Amino-2-methyl-1H-imidazo[4,5-c]quinolin-1-yl)propyl]benzamide] | 230 to 231.4 °C | 0.37 | 10
